Laboratory results as given in patent US9150555B2, “Amide derivative and use thereof” (Mitsubishi Tanabe Pharma Corporation, priority 2010, dated 2015).
Structures can show the parent of a compound that is named as a salt.

How the values were obtained:
hERG = hERG (Homo sapiens, UniProt Q12809); assay: Effects on hERG current (whole-cell clamping); conditions: human, HEK 293 cells that express hERG
[1] = tested on: IL-17 production of mouse spleen cells stimulated by rm-IL-23; assay: Production of IL-17 induced when mouse spleen cells were stimulated by recombinant mouse interleukin-23 (rm-IL-23); type: cell-based; conditions: inhibition of IL-17 production, DBA/1J mouse spleen cells, rm-IL-23 1 nmol/L, ELISA
Description: Effect on Production of IL-17 Induced when Mouse Spleen Cells were Stimulated by Recombinant Mouse Interleukin-23 (rm-IL-23)
An RPMI1640 (Sigma-Aldrich) was used as a medium, to which penicillin G potassium (50 units/mL; Gibco), streptomycin (50 μg/mL; Gibco) and 2-mercaptoethanol (50 μmol/l; Sigma-Aldrich) were added, and then 10% of fetal calf serum (FCS; Cell Culture Technology) inactivated at 56° C. for 30 minutes was added and used in the Test. The test compound was dissolved in dimethylsulfoxide and diluted with 10% FCS-containing RPMI1640 medium to a desired concentration and used in the test. The spleens were aseptically taken out from 6-7 week-old male DBA/1J mice (Charles River Japan, Inc.) and a single cell suspension of spleen cells was prepared and hemolyzed by hypotonic treatment with a mixture of 0.83% aqueous solution of ammonium chloride and Tris-HCl buffer of pH 7.65 (9:1). A cell suspension prepared by 10% FCS-containing RPMI1640 medium was added to flat-bottomed 96 well microtestplate at 2×10^5 cells/well. Test compounds and rm-IL-23 (R&D systems) were diluted with a medium to 1 to 1,000 nmol/L, and 1 nmol/L of the final concentration respectively, which were added and cultured at 37° C., 5% carbon dioxide and 95% air for 72 hours. After completion of the culture, culture supernatant was sampled and an amount of IL-17 production was determined by ELISA method. After sampling the supernatant, WST-8 (Seikagaku Corporation) was added at 10 μl/well and cultured at 37° C., 5% carbon dioxide and 95% air for 4 hours. Then, absorbance (O.D.: Optical Density) at 450 nm was measured by a microplate reader and the value was adopted as an index of cell survivability. An inhibition rate (%) was calculated according to the following formula on the basis of an average of an amount of IL-17 production and a O.D. values of the well containing a test compound of each concentration.
Based on the dose-response curve obtained by plotting the inhibition rate in the longitudinal axis and concentration in the horizontal axis, the concentration of the compound which inhibits the level to 50% of the value of the control group (IC50; nmol/L) was determined by linear regression analysis. The results was shown in the next Table 1

[2] = pH 7.4, hERG inhibition rate (%) (1 μM), 1 μM, tail peak current, hERG-expressed HEK 293 cells

Chain of hERG (Q12809 whole entry): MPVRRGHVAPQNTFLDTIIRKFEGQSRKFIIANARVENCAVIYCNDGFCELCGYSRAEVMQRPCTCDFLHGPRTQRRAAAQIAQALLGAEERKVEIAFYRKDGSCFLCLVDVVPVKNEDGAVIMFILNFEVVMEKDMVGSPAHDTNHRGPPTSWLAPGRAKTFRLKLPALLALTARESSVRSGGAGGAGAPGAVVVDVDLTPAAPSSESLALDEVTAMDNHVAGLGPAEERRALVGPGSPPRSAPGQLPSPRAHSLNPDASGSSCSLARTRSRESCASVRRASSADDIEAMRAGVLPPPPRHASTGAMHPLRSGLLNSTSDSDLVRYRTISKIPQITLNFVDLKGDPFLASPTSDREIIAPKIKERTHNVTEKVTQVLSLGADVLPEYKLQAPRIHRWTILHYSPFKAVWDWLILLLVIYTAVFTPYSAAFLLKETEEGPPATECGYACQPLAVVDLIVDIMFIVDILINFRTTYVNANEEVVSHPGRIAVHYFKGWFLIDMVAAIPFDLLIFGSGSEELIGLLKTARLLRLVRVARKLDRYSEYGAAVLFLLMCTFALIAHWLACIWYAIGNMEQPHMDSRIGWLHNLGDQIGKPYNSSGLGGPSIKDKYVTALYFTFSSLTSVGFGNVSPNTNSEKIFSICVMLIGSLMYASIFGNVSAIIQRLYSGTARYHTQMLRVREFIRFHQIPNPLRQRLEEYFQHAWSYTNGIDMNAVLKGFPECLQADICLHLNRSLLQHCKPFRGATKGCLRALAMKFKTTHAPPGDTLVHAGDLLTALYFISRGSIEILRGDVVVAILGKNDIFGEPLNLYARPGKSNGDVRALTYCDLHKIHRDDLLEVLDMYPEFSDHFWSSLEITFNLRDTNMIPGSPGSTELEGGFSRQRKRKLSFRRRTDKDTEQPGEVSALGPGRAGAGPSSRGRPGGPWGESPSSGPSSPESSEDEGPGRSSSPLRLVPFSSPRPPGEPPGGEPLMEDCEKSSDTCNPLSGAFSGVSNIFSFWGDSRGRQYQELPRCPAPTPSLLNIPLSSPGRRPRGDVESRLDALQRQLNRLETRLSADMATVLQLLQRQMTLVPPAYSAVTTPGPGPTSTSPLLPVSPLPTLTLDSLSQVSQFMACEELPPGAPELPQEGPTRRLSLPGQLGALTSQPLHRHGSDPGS

Structure (SMILES) | inhibition at 1 µM (hERG; [2]) [%] | IC50 ([1]; Mus musculus, 72 h) [nM] | inhibition at 1 µM (hERG; pH 7.4) [%] | IC50 ([1]; 72 hours) [nM]
Cc1c(C(=O)Nc2ccc(C3CCC(=O)CC3)nc2)cnn1-c1ccc(F)cc1F [Example E21] | 8.3 | 180 | – | –
Cc1ccc(-n2ncc(C(=O)Nc3ccc(C4CCC(=O)CC4)nc3)c2C)cc1 [Example E22] | 2.7 | 328 | – | –
Cc1cc(NC(=O)c2cnn(-c3ccc(C(F)(F)F)cc3)c2C)cnc1C1=CCOCC1 [Example E30, N-[6-(3,6-Dihydro-2H-pyran-4-yl)-5-methylpyridin-3-yl]-5-methyl-1-[4-(trifluoromethyl)-phenyl]-1H-pyrazole-4-carboxamide] | 10.7 | 149 | – | –
Cc1c(C(=O)Nc2ccc(C3(C#N)CCC(=O)CC3)nc2)cnn1-c1ccc(C(F)(F)F)cn1 [Example F2, N-[6-(1-Cyano-4-oxocyclohexyl)pyridin-3-yl]-5-methyl-1-[5-(trifluoromethyl)pyridin-2-yl]-1H-pyrazole-4-carboxamide hydrochloride] | 22.4 | 53.4 | – | –
Cc1c(C(=O)Nc2ccc(C3(C#N)CCC(=O)CC3)nc2)cnn1-c1ccc(F)cc1 [Example F6] | 6.8 | 107 | – | –
Cc1c(C(=O)Nc2ccc(C3(C#N)CCC(=O)CC3)nc2)cnn1-c1ccc(Cl)c(Cl)c1 [Example F8] | 15.4 | 61.6 | – | –
Cc1c(C(=O)Nc2ccc(C3(C#N)CCC(=O)CC3)nc2)cnn1-c1ccc(F)c(F)c1 [Example F10] | – | – | 8 | 278
Cc1c(C(=O)Nc2ccc(C3CCC(=O)CC3)nc2)cnn1-c1ccc(C(C)(C)C)cc1 [Example F26] | 8.1 | 321 | – | –
Cc1cc(NC(=O)c2cnn(-c3ccc(C(F)(F)F)cn3)c2C)cnc1C1CCC(=O)CC1 [Example F32] | 17.9 | 146 | – | –
Cc1c(C(=O)Nc2ccc([C@H]3CC[C@H](O)CC3)nc2)cnn1-c1ccc(C(C)(C)C)cc1 [Example G4, trans-1-(4-tert-Butylphenyl)-N-[6-(4-hydroxycyclohexyl)pyridin-3-yl]-5-methyl-1H-pyrazole-4-carboxamide] | 5.2 | 48 | – | –
Cc1cc(NC(=O)c2cnn(-c3ccc(C(F)(F)F)cc3)c2C)cnc1C1=CCC(O)CC1 (centres unmarked) [Example G5, N-[6-(4-Hydroxycyclohex-1-en-1-yl)-5-methylpyridin-3-yl]-5-methyl-1-[4-(trifluoromethyl)-phenyl]-1H-pyrazole-4-carboxamide] | 11.7 | 86.6 | – | –
Cc1c(C(=O)Nc2ccc([C@]3(C#N)CC[C@@H](O)CC3)nc2)cnn1-c1ccc(Cl)c(Cl)c1 [Example G8] | 1.9 | 56.4 | – | –
Cc1c(C(=O)Nc2ccc(C3CCC(O)CC3)nc2)cnn1-c1ccc(Cl)cc1 (centres unmarked) [Example G9] | 0.8 | 145 | – | –
Cc1c(C(=O)Nc2ccc(C3CCC(O)CC3)nc2)cnn1-c1ccc(C(F)(F)F)cc1 (centres unmarked) [Example G10] | 5.1 | 118 | – | –
Cc1c(C(=O)Nc2ccc([C@]3(C#N)CC[C@@H](O)CC3)nc2)cnn1-c1ccc(OC(F)(F)F)cc1 [Example G11] | 12.2 | 84.6 | – | –
Cc1c(C(=O)Nc2ccc([C@]3(C#N)CC[C@@H](O)CC3)nc2)cnn1-c1ccc(F)c(F)c1 [Example G12] | 6.5 | 260 | – | –
Cc1cc(NC(=O)c2cnn(-c3ncc(C(F)(F)F)cc3F)c2C)cnc1[C@H]1CC[C@H](O)CC1 [Example G29, trans-1-[3-Fluoro-5-(trifluoromethyl)pyridin-2-yl]-N-[6-(1-hydroxycyclohexan-4-yl)-5-methylpyridin-3-yl]-5-methyl-1H-pyrazole-4-carboxamide] | 6.7 | 133 | – | –

Structure (SMILES) | inhibition at 1 µM (hERG; [2]) [%] | IC50 ([1]; Mus musculus, 72 h) [nM] | inhibition at 1 µM (hERG; pH 7.4) [%] | IC50 ([1]; 72 hours) [nM]
COc1cc(C(F)(F)F)cnc1-n1ncc(C(=O)Nc2cnc([C@H]3CC[C@H](O)CC3)c(C)c2)c1C [Example G30] | 3.2 | 147 | – | –
Cc1cc(NC(=O)c2cnn(-c3ncc(C(F)(F)F)cc3Cl)c2C)cnc1[C@H]1CC[C@H](O)CC1 [Example G32, trans-1-[3-Chloro-5-(trifluoromethyl)pyridin-2-yl]-N-[6-(1-hydroxycyclohexan-4-yl)-5-methylpyridin-3-yl]-5-methyl-1H-pyrazole-4-carboxamide] | 7.9 | 105 | – | –
Cc1cc(NC(=O)c2cnn(-c3ccc(C(F)(F)F)cn3)c2C)cnc1[C@H]1CC[C@H](O)CC1 [Example J7, trans-N-[6-(4-Hydroxycyclohexyl)-5-methylpyridin-3-yl]-5-methyl-1-[5-(trifluoromethyl)-pyridin-2-yl]-1H-pyrazole-4-carboxamide] | 7.9 | 67.5 | – | –
Cc1c(C(=O)Nc2ccc([C@H]3CC[C@H](O)CC3)nc2)cnn1-c1ccc(OCCOC(C)(C)C)cc1 [Example J8] | 11.3 | 53 | – | –
Cc1cc(NC(=O)c2cnn(-c3ccc(C4CC4)cn3)c2C)cnc1[C@H]1CC[C@H](O)CC1 [Example J12] | 10.8 | 149 | – | –
Cc1c(C(=O)Nc2ccc([C@]3(C#N)CC[C@@H](O)CC3)nc2)cnn1-c1ccc(C2CC2)cn1 [Example J13] | 10.7 | 242 | – | –
Cc1c(C(=O)Nc2ccc([C@]3(C#N)CC[C@@H](O)CC3)nc2)cnn1-c1ncc(C(F)(F)F)cc1Cl [Example J15] | 8.2 | 438 | – | –
Cc1c(C(=O)Nc2ccc([C@]3(C#N)CC[C@@H](O)CC3)nc2)cnn1-c1ncc(C(F)(F)F)cc1F [Example J16] | 13.5 | 305 | – | –
Cc1c(C(=O)Nc2ccc([C@]3(C#N)CC[C@@H](O)CC3)nc2)cnn1-c1ncc(C2CC2)cc1F [Example J17] | 2.4 | 275 | – | –
Cc1c(C(=O)Nc2ccc([C@]3(C#N)CC[C@@H](O)CC3)nc2)cnn1-c1ccc(C(C)C)cc1 [Example J18] | 17.8 | 137 | – | –
Cc1c(C(=O)Nc2ccc([C@]3(C#N)CC[C@@H](O)CC3)nc2)cnn1-c1ccc(C2CC2)cc1 [Example J19] | 18.5 | 132 | – | –
CCc1ccc(-n2ncc(C(=O)Nc3ccc([C@]4(C#N)CC[C@@H](O)CC4)nc3)c2C)cc1 [Example J20] | 18.1 | 90 | – | –
Cc1c(C(=O)Nc2ccc(C3(C(=O)O)CCCCC3)nc2)cnn1-c1ccc(Cl)cc1 [Example K4, 1-[5-({[1-(4-Chlorophenyl)-5-methyl-1H-pyrazol-4-yl]carbonyl}amino)pyridin-2-yl]-cyclohexanecarboxylic acid] | 17.2 | 127 | – | –
Cc1c(C(=O)Nc2ccc(C3(C#N)CCC(O)CC3)nc2)cnn1-c1ccc(C(F)(F)F)cn1 (centres unmarked) [Example K6, N-[6-(r-1-Cyano-c-4-hydroxycyclohexyl)pyridin-3-yl]-5-methyl-1-[5-(trifluoromethyl)pyridin-2-yl]-1H-pyrazole-4-carboxamide] | 40 | 148 | – | –
Cc1ccc(-n2ncc(C(=O)Nc3ccc([C@]4(C#N)CC[C@@H](OCCO)CC4)nc3)c2C)cc1 [Example K19, N-{6-[r-1-cyano-c-4-(2-hydroxyethoxy)cyclohexyl]pyridin-3-yl}-5-methyl-1-(4-methylphenyl)-1H-pyrazole-4-carboxamide] | 2.4 | 148 | – | –
CNC1CC=C(c2ncc(NC(=O)c3cnn(-c4ccc(C(F)(F)F)cn4)c3C)cc2C)CC1 (centres unmarked) [Example K26, 5-Methyl-N-[5-methyl-6-(4-methylaminocyclohex-1-en-1-yl)pyridin-3-yl]-1-[5-(trifluoromethyl)pyridin-2-yl]-1H-pyrazole-4-carboxamide] | 14.3 | 376 | – | –
CC(=O)N(C)C1CC=C(c2ncc(NC(=O)c3cnn(-c4ccc(C(F)(F)F)cn4)c3C)cc2C)CC1 (centres unmarked) [Example K27, N-{6-[4-(N-Acetyl-N-methylamino)cyclohex-1-en-1-yl]-5-methylpyridin-3-yl}-5-methyl-1-[5-(trifluoromethyl)pyridin-2-yl]-1H-pyrazole-4-carboxamide] | 9.7 | 242 | – | –
